Experiment [1] has as its system A549 lung cancer cell line. Particulars: literature values; read-out: IC50 against the A549 lung cancer cell line; cited from earlier work.
Experiment [2] relates to p65 (RelA) nuclear translocation in THP-1 cells. Description: Indirect immunofluorescence for NF-κB nuclear translocation. In kind it is cell-based, human. Particulars: pretreated 1 h, LPS 30 min; Bay 11-7082 10 μM. The method, then:
(§1) THP-1 cells were maintained in RPMI 1640 medium supplemented with 10% complement-inactivated FBS and 1% penicillin/streptomycin (complete culture medium) at 37° C. with 5% CO2 supplemented. Cell concentrations were adjusted to desired concentrations for each experiment by centrifugation at 500×g for 5 min and resuspended in complete culture medium with 100 nM of PMA. Cell concentration was adjusted to 5×10^5 cells/ml for all assays and 2.5×10^5 cells/ml were used for NF-κB nuclear translocation assay. Cells were seeded onto 96-, 24-, or 12-well plates and incubated for 48 to 72 h to allow for differentiation. Cells were washed with serum-free RPMI 1640 medium before each experiment to remove the undifferentiated cells.
Differentiated THP-1 cells were pretreated with 50 μM of cis-gnetin H, trans-gnetin H, or 10 μM of Bay 11-7082 for 1 h and stimulated with 1 μg/ml of LPS for 30 min. Bay 11-7082 is a compound that inhibits IKK α/β and IκB α phosphorylation and was used as a positive control (Juliana et al., 2010, J. Biol. Chem., 285:9792-802). Treated cells were fixed, permeabilized, blocked, and stained with NF-κB, p65 primary antibody, Dylight 488 conjugated secondary antibody, and Hoechst 33342 dye, sequentially. The Hoechst and DyLight fluorophores detect changes in nuclear morphology (blue fluorescence) and NF-κB distribution (green fluorescence) respectively. Nuclear Translocation Bioapplication software on the Arrayscan VTI reader was used for image acquisition and analysis. For each well, at least 400 cells were automatically acquired and analyzed. The translocation index was calculated by measuring the average intensity difference of NF-icB between the identified cytoplasmic region and nuclear region.

In experiment [3] the test system is TNF-α in LPS-stimulated THP-1 cells. Description: Cytokine response by ELISA, TNF-α. Type of experiment: cell-based, human. Particulars: Homo sapiens, THP-1; 1 μM, 20 ng/ml LPS 4 h. On the procedure:
as §1
(§2) Differentiated THP-1 cells were pretreated with various concentrations of cis-gnetin H, trans-gnetin H, or 1 μM of dexamethasone for 1 h and stimulated with 20 ng/ml of LPS for 4 h. Dexamethasone is a synthetic glucocorticoid that suppresses cytokine response and was used as a positive control (Abraham et al., 2006, J. Exp. Med., 203:1883-9; Steer et al., J. Biol. Chem., 2000, 275(24):18432-40). Supernatants were collected for human cytokine ELISAs and the manufacturer's protocol was followed to assess the cytokine response. Cells remaining after the supernatant collection were tested for relative viability by Alamar Blue cytotoxicity assay as described earlier.
(In general: An ELISA detects its analyte on a solid surface through an enzyme-linked reagent.)

In experiment [4] the test system is IL-1β in LPS-stimulated THP-1 cells. Description: Cytokine response by ELISA, IL-1β. In kind it is cell-based, human. Particulars: Homo sapiens, THP-1; 1 μM, 20 ng/ml LPS 4 h. The method, then:
as §1, §2

Experiment [5] relates to IL-8 in LPS-stimulated THP-1 cells. Description: Cytokine response by ELISA, IL-8. In kind it is cell-based, human. Conditions: Homo sapiens, THP-1; 1 μM, 20 ng/ml LPS 4 h. On the procedure: as §1, §2

“And” between values parts separate entries of the source, which are not always exact repeats. Equal entries are not always repeated.

Consider 3 compounds from patent publication US11007169B2, “Cis-gnetin H and trans-gnetin H as therapeutic agents” (MIDDLE TENNESSEE STATE UNIVERSITY, priority 2014, dated 2021).

The term IC50 denotes the concentration that gives 50% inhibition. In the case of `Oc1ccc(C=Cc2cc(O)cc(O)c2)cc1` [Resveratrol, 3,5,4′-trihydroxystilbene], the IC50 in experiment [1] was 8.9 µM and > 10 µM.

`Cc1ccc(S(=O)(=O)C=CC#N)cc1` [Bay 11-7082, 3-(4-methylphenylsulfonyl)-2-propenenitrile, reference compound]: the p65 nuclear translocation result in experiment [2] is reported as “inhibited the p65 nuclear translocation”.

A word on the inhibition: it is the relative decrease from the control value, in per cent. Read a low inhibition as a weak effect. Turning to `C[C@@H]1C[C@H]2[C@@H]3CCC4=CC(=O)C=C[C@]4(C)[C@@]3(F)[C@@H](O)C[C@]2(C)[C@@]1(O)C(=O)CO` [Dexamethasone, dexamethasone, reference compound], the inhibition at 1 µM in experiment [3] is 58%; in experiment [4] it was 56%; in experiment [5], 63%.
